Experiments:
[1] = test system: tyrosine hydroxylase (TH); assay: Differentiation of pluripotent stem cells into dopaminergic neurons: tyrosine hydroxylase expression; format: cell-based
Method: Pluripotent stem cells were seeded in Aggre Well plates (stemcell) at 5,000 cells/microwell and cultured for 5 days in E6 medium (GIBCO) to induce embryonic body (EB) formation. For neural rosette formation, EBs were seeded into 35 mm dishes in groups of 30 and cultured for 10 days in N2bF medium. The 35 mm dishes were used after being coated with 15 μg/ml of poly-L-ornithine (sigma) and 1 μg/ml of fibronectin (sigma). The N2Bf medium composition was DMEM/F12 (GIBCO), N2 supplement (stemcell) 1×, 10% NEAA (GIBCO), 55 µM beta-Mercaptoethanol (GIBCO), bFGF (peprotech) 20 ng/ml. For the formation of spherical neural masses (SNMs), rosette masses were sliced and cultured in petri dishes with N2bF medium. SNMs were no larger than 500 UM in size and were sliced and cultured for 3 to 4 passages. After subculture of SNM, the clumps were broken into small pieces using a tungsten mesh (Nilaco) for the neural progenitor cell (NPC) culture step, and then attached to a PLO/FN-coated dish and cultured in N2bF medium. To differentiate NPCs into dopaminergic neurons, the medium was replaced with an ITS-B27 medium after 2 days of NPC culture. The ITS-B27 medium composition was DMEM/F12 (GIBCO), D-(+)-glucose (sigma) 1.5 mg/ml, insulin (wako) 5 μg/ml, transferrin (wako) 50 μg/ml, selenite (sigma) 30 nM, GlutaMAX (GIBCO) 2.5%, and B27 (GIBCO) 1×. After 4 days of NPC culture, 200 ng/ml of Sonic Hedgehog and 100 ng/ml of FGF8 (peprotech) were added to the ITS-B27 medium. After 6 days of NPC culture, 200 ng/ml of Sonic Hedgehog, 20 ng/ml of GDNF, 20 ng/ml of BDNF (peprotech), 200 µM of ascorbic acid, and 500 μM of cAMP (sigma) were added to the ITS-B27 medium and cultured for approximately 5 weeks. The compound of formula (1a-1) was treated starting from the stage 2 days after NPC culture. […]
(§1) The effect of the compound of formula (1a-1) on differentiation into neurons was evaluated by comparing the expression of tyrosine hydroxylase (TH) and dopamine transporter (DAT) depending on the presence or absence of treatment with the compound of formula (1a-1).

α-synuclein = α-synuclein expression in differentiated SH-SY5Y dopaminergic neurons by western blot; format: cell-based, human; details: FIG. 6
Method: To analyze the effect on the expression of tyrosine hydroxylase (TH) and α-synuclein as neuron-specific proteins, western blot was performed.
SH-SY5Y cell line was treated with retinoic acid and 12-O-tetradecanoylphorbol-13-acetate (TPA) to induce differentiation into TH-secreting neurons for 6 days.
Differentiated dopaminergic neurons were lysed in PRO-PREP (Intronbio), a cell lysis solution containing protease inhibitor cocktail (Gendepot), and electrophoresed in 10% SDS polyacrylamide gels at 20 μg/well. Transfer was performed using PVDF (Merck millipore) as a membrane, and tyrosine hydroxylase antibody, «-synuclein antibody (Cell signaling), and β-actin antibody (Santa Cruz) were used for reaction for more than 2 hours. Protein expression was detected by staining with ECL substrate (Biorad) for development and graphed using the image J program.

C57BL/6 mice = assay: Survival in sepsis induced by cecal ligation and puncture (CLP); format: in vivo, mouse; details: 100 ng/mouse (5 μg/kg) i.v. at 6 and 16 hours after CLP; FIG. 7
Method: C57BL/6 mice aged 7-8 weeks were purchased from Jabio (Suwon, Gyeonggi-do) and sepsis was induced by cecal ligation and puncture (CLP).
Specifically, after anesthesia using 150 mg/kg of ketamine and 17.5 mg/kg of rompun, an abdominal incision of 1-2 cm was made to expose the cecum to induce sepsis. The cecum was ligated with 6-0 silk sutures at the distal end of the ileocecal valve, and a puncture was made with an 18-gauge needle. The perforated cecum was gently squeezed to push out 1-2 cm of feces, and the cecum was then retracted back into the abdominal cavity. The abdomen was then closed and pre-warmed normal saline (2.5 mL/100 g body weight) was injected into the mouse abdominal cavity immediately after the procedure. 6 and 16 hours after CLP treatment, the compound of formula (1a-1) was dissolved in phosphate buffered saline (PBS) and injected intravenously at 100 ng/mouse (5 μg/kg), and survival was examined for 10 days. […] In addition, as a drug-negative control, survival was examined in mice that received only PBS after CLP treatment.
For comparison, we also examined the survival of a control group treated with fingolimod (FTY720), a known S1P modulator, instead of the compound of formula (1a-1) under the same conditions.

IL-6 = IL-6 in serum after CLP treatment by ELISA; format: in vivo, mouse; details: serum at 18 hours, treated at 6 and 16 hours after CLP; FIG. 10
Method: After CLP treatment, the inflammatory cytokines TNF-α and IL-6 were analyzed by ELISA.
Specifically, after treating the compound of formula (1a-1) at 6 and 16 hours after CLP treatment, mouse blood was collected at 18 hours and allowed to stand at room temperature for 1 hour, then centrifuged at 3000 rpm for 10 minutes to obtain serum to analyze the amount of TNF-α and IL-6.

[2] = test system: APP/PS/Tau transgenic mice; assay: Intestinal length in an AD-induced animal model (APP/PS/Tau transgenic mice); format: in vivo, mouse; details: 1 mg/kg i.p. once every 3 days for 2 weeks, FIG. 2
Method: In neurodegenerative diseases (AD and PD), the length of the intestine tends to decrease as the disease progresses, so we looked for changes in intestinal length in an AD-induced animal model.
APP/PS/Tau transgenic mice were used as an AD-induced animal model. The compound of formula (1a-1) was administered intraperitoneally once every 3 days at a concentration of 1 mg/kg to 12-week-old transgenic mice for 2 weeks, and the changes in intestinal length of the mice were measured after 1 and 4 weeks.

[3] = test system: dopamine transporter (DAT); assay: Differentiation of pluripotent stem cells into dopaminergic neurons: dopamine transporter; format: cell-based; details: 5-week differentiation sample, FIG. 5B
Method: Pluripotent stem cells were seeded in Aggre Well plates (stemcell) at 5,000 cells/microwell and cultured for 5 days in E6 medium (GIBCO) to induce embryonic body (EB) formation. For neural rosette formation, EBs were seeded into 35 mm dishes in groups of 30 and cultured for 10 days in N2bF medium. The 35 mm dishes were used after being coated with 15 μg/ml of poly-L-ornithine (sigma) and 1 μg/ml of fibronectin (sigma). The N2Bf medium composition was DMEM/F12 (GIBCO), N2 supplement (stemcell) 1×, 10% NEAA (GIBCO), 55 µM beta-Mercaptoethanol (GIBCO), bFGF (peprotech) 20 ng/ml. For the formation of spherical neural masses (SNMs), rosette masses were sliced and cultured in petri dishes with N2bF medium. SNMs were no larger than 500 UM in size and were sliced and cultured for 3 to 4 passages. After subculture of SNM, the clumps were broken into small pieces using a tungsten mesh (Nilaco) for the neural progenitor cell (NPC) culture step, and then attached to a PLO/FN-coated dish and cultured in N2bF medium. […]
as §1

## CCCCCCCCCCCCCC[C@H]1OP(=O)(O)O[C@H]1[C@@H](N)CO.Cl [formula (1a-1), (4S,5R)-4-((S)-1-amino-2-hydroxyethyl)-2-hydroxy-5-tetradecyl-1,3,2-dioxaphosphoran-2-oxide hydrochloride]
[1]; 5-week differentiation sample, FIG. 5B
  TH expression (western blot): TH expression is increased
[1]; FIG. 5A
  expression of TH (cell fluorescence immunostaining): the expression of TH increased
[1]; FIG. 5A, TH expression otherwise increases after more than 5 weeks of differentiation
  time at which TH expression was elevated: ≤ 3 weeks
α-synuclein; differentiated dopaminergic neurons treated with rotenone (RT)
  expression of α-synuclein: the expression of α-synuclein increased by rotenone was decreased
α-synuclein; rotenone-treated differentiated dopaminergic neurons
  effectiveness relative to resveratrol (control drug), α-synuclein expression: more effective than resveratrol
C57BL/6 mice
  deaths after 10 days: no deaths
  survival for 10 days: more than 80%
IL-6
  amount of IL-6: significantly decreased
[2]
  intestinal length at 4 weeks (6W) vs 1 week (3W) after administration: the length of the intestine at 4 weeks is longer compared to the length of the intestine at 1 week
[2]; untreated AD-induced mice as control
  intestinal length vs control group: the intestinal length is increased
[3]
  DAT glycosylation (western blot): DAT glycosylation is increased
